Earlier results, collected in patent US6503920B1, “Cabergoline and pramipexole: new uses and combinations” (Pharmacia & Upjohn Company, priority 1998, dated 2003).

Experiments:
[1] = test system: PSP patients; conditions: 120 mg/day, 2-week open label, two patients
[2] = test system: PSP patients; conditions: 10 patients, double blind crossover
[3] = test system: PSP patients; conditions: controlled trial of 7 subjects
[4] = test system: PSP patients; conditions: controlled trial
[5] = test system: PSP patients
[6] = test system: PSP patients; conditions: 750-1500 mg per day

SMILES: c1ccc2c(c1)OCC(C1=NCCN1)O2 (stereo not drawn) [Idazoxan]
- marginal improvement [1]: 12-34%
- side effects [1]: sympathetic side effects were common

SMILES: CCN1C(=O)CC2(CCN(C)CC2)C1=O [RS-86]
- motor or cognitive changes [2]: no consistent motor or cognitive changes

SMILES: CCN(CC)C(=O)N[C@H]1C=C2c3cccc4[nH]cc(c34)C[C@H]2N(C)C1 [Lisuride]
- overall result of the trial [3]: not any significant results
- patients with mild improvement [3]: two patients had a mild improvement

SMILES: CCCN1C[C@H](CSC)C[C@@H]2c3cccc4[nH]cc(c34)C[C@H]21 [Pergoline]
- subjects with mild antiparkinsonian effects [4]: 2/3

SMILES: N[C@@H](Cc1ccc(O)c(O)c1)C(=O)O [L-dopa]
- most common side effects reported [5]: development of hallucinations
- patients showing no effect [6]: 44%
- response rate showing mild to moderate improvement on the basis of clinical impressions [6]: 54%
